Laboratory results taken from patent US9187472B2 (AbbVie Inc., priority 2012, dated 2015).

target: NAMPT (human, recombinant, C-terminally His-tagged) (Homo sapiens, UniProt P43490); experiment: Time-Resolved Fluorescence Resonance Energy Transfer (TR-FRET) Binding Assay of NAMPT; details: without substrates; 6.8 nM NAMPT, 200 nM probe, 3 hours equilibration
Method: Determination of the utility of compounds having Formula (I) as binders to and inhibitors of NAMPT was performed using Time-Resolved Fluorescence Resonance Energy Transfer (TR-FRET) binding assays.
Time-Resolved Fluorescence Resonance Energy Transfer (TR-FRET) Binding Assay of NAMPT
Test compounds were serially diluted (typically 11 half log dilutions) in neat DMSO to 50× final concentrations prior to dilution with assay buffer (50 mM HEPES (NaOH), pH 7.5, 100 mM NaCl, 10 mM MgCl2, 1 mM DTT, 1% Glycerol) to 3× and 6% DMSO. Six μL were transferred to 384-well low-volume plates (Owens Corning #3673). To this, […] of a 1.5× solution containing enzyme, probe and antibody were added. Final concentrations in the 18 μL, reactions were 1× assay buffer, 2% DMSO, 6.8 nM NAMPT (human, recombinant, C-terminally His-tagged), 200 nM probe (a potent nicotinamide-competitive inhibitor conjugated to Oregon Green 488) and 1 nM Tb-anti-His antibody (Invitrogen # PV5895). Reactions were equilibrated at room temperature for 3 hours prior to reading on an Envision multi-label plate reader (Perkin Elmer; Ex=337 nm, Em=520 and 495 nm). Time-resolved FRET ratios (Em520/Em495) were normalized to controls, plotted as a function of compound concentration and fit with the four-parameter logistic equation to determine IC50s.

NAMPT (human, recombinant, C-terminally His-tagged), sequence (P43490 whole entry): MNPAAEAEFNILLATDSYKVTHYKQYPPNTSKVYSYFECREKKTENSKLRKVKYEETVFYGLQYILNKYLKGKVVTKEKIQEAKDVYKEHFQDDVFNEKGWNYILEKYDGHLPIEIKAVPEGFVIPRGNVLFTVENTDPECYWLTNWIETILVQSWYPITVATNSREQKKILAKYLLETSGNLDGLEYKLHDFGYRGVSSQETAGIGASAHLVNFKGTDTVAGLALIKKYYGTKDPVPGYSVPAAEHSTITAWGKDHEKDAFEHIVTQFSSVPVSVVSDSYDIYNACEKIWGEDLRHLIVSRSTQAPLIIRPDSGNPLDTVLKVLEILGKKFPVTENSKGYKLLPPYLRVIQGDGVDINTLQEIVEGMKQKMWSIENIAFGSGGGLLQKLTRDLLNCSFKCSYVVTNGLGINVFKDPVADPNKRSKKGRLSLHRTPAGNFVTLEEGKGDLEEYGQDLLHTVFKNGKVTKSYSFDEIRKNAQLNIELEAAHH

IC50 [nM] | SMILES
5.8 | COCCC(=O)N(Cc1ccc(C#N)cc1)c1ncc(C(=O)NCc2ccn3ccnc3c2)s1 [Example 57, 2-[(4-cyanobenzyl)(3-methoxypropanoyl)amino]-N-(imidazo[1,2-a]pyridin-7-ylmethyl)-1,3-thiazole-5-carboxamide]

tested on: PC3 cells; experiment: NAMPT Cell Proliferation Assay; type: cell-based; details: Homo sapiens, PC-3, 120 h, 5 days incubation, cell viability by Cell Titer Glo
Method in brief: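 Seed PC3 at 500 cells/well (RPMI, 10% HI-FBS), attach overnight; add compound, 10-fold series 10 μM → 1×10^−5 μM; incubate 5 d, 37° C/5% CO2; luminescent viability readout; fit % inhibition sigmoidally for IC50.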

IC50 [nM] | SMILES
2.2 | CCCc1c(C(=O)N2CCC(c3ccc(NC(=O)NCc4ccn5ccnc5c4)cc3)CC2)cnn1C [Example 1141, 1-(imidazo[1,2-a]pyridin-7-ylmethyl)-3-(4-{1-[(1-methyl-5-propyl-1H-pyrazol-4-yl)carbonyl]piperidin-4-yl}phenyl)urea]
2.9 | CC(C(=O)N1CCC(c2ccc(NC(=O)NCc3ccn4ccnc4c3)cc2)CC1)n1ccc(C2CC2)n1 (stereo not drawn) [Example 1142, 1-(4-{1-[2-(3-cyclopropyl-1H-pyrazol-1-yl)propanoyl]piperidin-4-yl}phenyl)-3-(imidazo[1,2-a]pyridin-7-ylmethyl)urea]
17.4 | O=C(NCc1ccn2ccnc2c1)Nc1ccc(C2CCN(C(=O)c3cc4ccccn4n3)CC2)cc1 [Example 1143, 1-(imidazo[1,2-a]pyridin-7-ylmethyl)-3-{4-[1-(pyrazolo[1,5-a]pyridin-2-ylcarbonyl)piperidin-4-yl]phenyl}urea]
9.6 | O=C(NCc1ccn2ccnc2c1)Nc1ccc(C2CCN(C(=O)c3ccc4occc4c3)CC2)cc1 [Example 1144, 1-{4-[1-(1-benzofuran-5-ylcarbonyl)piperidin-4-yl]phenyl}-3-(imidazo[1,2-a]pyridin-7-ylmethyl)urea]
7.04 | CC(C)c1nc(C(=O)N2CCC(c3ccc(NC(=O)NCc4ccn5ccnc5c4)cc3)CC2)co1 [Example 1145, 1-(imidazo[1,2-a]pyridin-7-ylmethyl)-3-[4-(1-{[2-(propan-2-yl)-1,3-oxazol-4-yl]carbonyl}piperidin-4-yl)phenyl]urea]
1.88 | Cn1ncc2cccc(C(=O)N3CCC(c4ccc(NC(=O)NCc5ccn6ccnc6c5)cc4)CC3)c21 [Example 1146, 1-(imidazo[1,2-a]pyridin-7-ylmethyl)-3-(4-{1-[(1-methyl-1H-indazol-7-yl)carbonyl]piperidin-4-yl}phenyl)urea]
2.83 | COc1ncc(C)cc1C(=O)N1CCC(c2ccc(NC(=O)NCc3ccn4ccnc4c3)cc2)CC1 [Example 1147, 1-(imidazo[1,2-a]pyridin-7-ylmethyl)-3-(4-{1-[(2-methoxy-5-methylpyridin-3-yl)carbonyl]piperidin-4-yl}phenyl)urea]
2.72 | COc1ccc(C(=O)N2CCC(c3ccc(NC(=O)NCc4ccn5ccnc5c4)cc3)CC2)nc1OC [Example 1148, 1-(4-{1-[(5,6-dimethoxypyridin-2-yl)carbonyl]piperidin-4-yl}phenyl)-3-(imidazo[1,2-a]pyridin-7-ylmethyl)urea]
2.62 | Cn1cc2c(C(=O)N3CCC(c4ccc(NC(=O)NCc5ccn6ccnc6c5)cc4)CC3)cccc2n1 [Example 1149, 1-(imidazo[1,2-a]pyridin-7-ylmethyl)-3-(4-{1-[(2-methyl-2H-indazol-4-yl)carbonyl]piperidin-4-yl}phenyl)urea]
64.1 | CCC1CCCCN1C(=O)C(=O)N1CCC(c2ccc(NC(=O)NCc3ccn4ccnc4c3)cc2)CC1 (stereo not drawn) [Example 1150, 1-(4-{1-[(2-ethylpiperidin-1-yl)(oxo)acetyl]piperidin-4-yl}phenyl)-3-(imidazo[1,2-a]pyridin-7-ylmethyl)urea]
7.78 | Cn1cc2ccc(C(=O)N3CCC(c4ccc(NC(=O)NCc5ccn6ccnc6c5)cc4)CC3)cc2n1 [Example 1151, 1-(imidazo[1,2-a]pyridin-7-ylmethyl)-3-(4-{1-[(2-methyl-2H-indazol-6-yl)carbonyl]piperidin-4-yl}phenyl)urea]
3.08 | Cn1ncc2c(C(=O)N3CCC(c4ccc(NC(=O)NCc5ccn6ccnc6c5)cc4)CC3)cccc21 [Example 1152, 1-(imidazo[1,2-a]pyridin-7-ylmethyl)-3-(4-{1-[(1-methyl-1H-indazol-4-yl)carbonyl]piperidin-4-yl}phenyl)urea]
1.72 | O=C(NCc1ccn2ccnc2c1)Nc1ccc(C2CCN(C(=O)c3ccoc3C(F)(F)F)CC2)cc1 [Example 1153, 1-(imidazo[1,2-a]pyridin-7-ylmethyl)-3-[4-(1-{[2-(trifluoromethyl)furan-3-yl]carbonyl}piperidin-4-yl)phenyl]urea]
17.4 | O=C(NCc1cn2ccnc2cn1)c1ccc(C2CCN(C(=O)c3ccccc3)CC2)cc1F [Example 1159, 4-(1-benzoylpiperidin-4-yl)-2-fluoro-N-(imidazo[1,2-a]pyrazin-6-ylmethyl)benzamide]
61.8 | O=C(Cc1ccc2nncn2c1)Nc1ccc(C2CCN(C(=O)c3ccccc3F)CC2)cc1 [Example 1162, N-{4-[1-(2-fluorobenzoyl)piperidin-4-yl]phenyl}-2-([1,2,4]triazolo[4,3-a]pyridin-6-yl)acetamide]

The next lines start with the compound.

SMILES | IC50 [nM]
COCCC(=O)N(Cc1ccc(C#N)cc1)c1ncc(C(=O)NCc2ccn3ccnc3c2)s1 [Example 57, 2-[(4-cyanobenzyl)(3-methoxypropanoyl)amino]-N-(imidazo[1,2-a]pyridin-7-ylmethyl)-1,3-thiazole-5-carboxamide] | 5.76
O=C(NCc1ccn2ccnc2c1)c1ccc(C2=CCN(c3ccncn3)CC2)cc1 [Example 1154, N-(imidazo[1,2-a]pyridin-7-ylmethyl)-4-[1-(pyrimidin-4-yl)-1,2,3,6-tetrahydropyridin-4-yl]benzamide] | 170
O=C(NCc1ccn2ccnc2c1)c1ccc(C2=CCN(c3cc(C(F)(F)F)ncn3)CC2)cc1 [Example 1156, N-(imidazo[1,2-a]pyridin-7-ylmethyl)-4-{1-[6-(trifluoromethyl)pyrimidin-4-yl]-1,2,3,6-tetrahydropyridin-4-yl}benzamide] | 35.4
CNCCOC12CC3(C)CC(C)(CC(Cn4ncc(-c5ccc(C(=O)NCc6ccn7ccnc7c6)s5)c4C)(C3)C1)C2 [Example 1157, 5-[1-({3,5-dimethyl-7-[2-(methylamino)ethoxy]tricyclo[3.3.1.1^3,7]dec-1-yl}methyl)-5-methyl-1H-pyrazol-4-yl]-N-(imidazo[1,2-a]pyridin-7-ylmethyl)thiophene-2-carboxamide] | 53.1
CC1(C(=O)N2CCC(c3ccc(C(=O)NCc4cn5ccnc5cn4)c(F)c3)CC2)CC1 [Example 1158, 2-fluoro-N-(imidazo[1,2-a]pyrazin-6-ylmethyl)-4-{1-[(1-methylcyclopropyl)carbonyl]piperidin-4-yl}benzamide] | 2.04
CC(C)C(=O)N1CCC(c2ccc(C(=O)NCc3cn4ccnc4cn3)c(F)c2)CC1 [Example 1160, 2-fluoro-N-(imidazo[1,2-a]pyrazin-6-ylmethyl)-4-[1-(2-methylpropanoyl)piperidin-4-yl]benzamide] | 16.3
O=C(NCc1cn2ccnc2cn1)c1ccc(C2CCN(C(=O)CC(F)(F)F)CC2)cc1F [Example 1161, 2-fluoro-N-(imidazo[1,2-a]pyrazin-6-ylmethyl)-4-[1-(3,3,3-trifluoropropanoyl)piperidin-4-yl]benzamide] | 61
CC1(Cn2cc(-c3ccc(C(=O)NCc4ccn5ccnc5c4)s3)cn2)CCN(CCN2CCNCC2)CC1 [Example 1163, N-(imidazo[1,2-a]pyridin-7-ylmethyl)-5-[1-({4-methyl-1-[2-(piperazin-1-yl)ethyl]piperidin-4-yl}methyl)-1H-pyrazol-4-yl]thiophene-2-carboxamide] | 2.7
CC1(Cn2cc(-c3ccc(C(=O)NCc4ccn5ccnc5c4)s3)cn2)CCN(C(=O)CSC[C@H](N)C(=O)O)CC1 [Example 1164, S-(2-{4-[(4-{5-[(imidazo[1,2-a]pyridin-7-ylmethyl)carbamoyl]thiophen-2-yl}-1H-pyrazol-1-yl)methyl]-4-methylpiperidin-1-yl}-2-oxoethyl)-L-cysteine] | 158
CC1(Cn2cc(-c3ccc(C(=O)NCc4ccn5ccnc5c4)s3)cn2)CCN(C(=O)CCOCCOCCOCCOCCN)CC1 [Example 1165, 5-(1-{[1-(15-amino-4,7,10,13-tetraoxapentadecan-1-oyl)-4-methylpiperidin-4-yl]methyl}-1H-pyrazol-4-yl)-N-(imidazo[1,2-a]pyridin-7-ylmethyl)thiophene-2-carboxamide] | 577
CC1(Cn2cc(-c3ccc(C(=O)NCc4ccn5ccnc5c4)s3)cn2)CCN(C(=O)CCNC(=O)CSC[C@H](N)C(=O)O)CC1 [Example 1166, S-{2-[(3-{4-[(4-{5-[(imidazo[1,2-a]pyridin-7-ylmethyl)carbamoyl]thiophen-2-yl}-1H-pyrazol-1-yl)methyl]-4-methylpiperidin-1-yl}-3-oxopropyl)amino]-2-oxoethyl}-L-cysteine] | 26.1
